Reference: PMC9025269, “Synthesis and Anti-Hepatitis B Activities of 3′-Fluoro-2′-Substituted Apionucleosides” (Molecules, 2022)
Like-named read-outs stand apart in the source and are kept apart here.

Legend:
HBV [1] = details: racemic compounds; read-out: EC50 HBV in vitro; cited from earlier work
HBV [2] = assay: HBV replication assay with HepG2.117 cells (qPCR of HBV DNA in supernatant); format: cell-based, Hepatitis B virus; details: for EC50: Hepatitis B virus, HepG2.117 cells, 96 h, mean ± SD (n); for anti-HBV activity: cell-based assay
[3] = Cell cytotoxicity against HepG2 cells (CellTiter-Glo, 96 h); format: cell-based, human; details: human
Procedure: (§1) In parallel, cell cytotoxicity (CC50) against HepG2 cells was measured using a luminescent cell viability assay to determine the number of viable cells in the culture based on quantitation of the adenosine triphosphate (ATP) present after a 4-day incubation period. On the first day, HepG2 cells were seeded at 15,000 cells per 100 µL per well with assay media containing DEME (Corning, cat#10-013-CV), 3% FBS (Coning, cat#35-011-CV), 1× penicillin/streptomycin and 1× Non-essential Amino Acid in Biocoat collagen-coated 96-well flat bottom plates. Cells were incubated in a 37 °C, 5% CO2 incubator for 4 h before compound dosing. The compound dilution and dosing procedure were identical to that for the determination of anti-HBV activity. After 96 h incubation, CellTiter-Glo® reagent (Promega, Madison, WI, USA) was added to each well and incubated for 10 min at RT. Luminescence was measured on a Victor X3 multi-label plate reader. Cell viability is normalized to the level observed in the absence of an inhibitor, which was defined as 100%.

[4] = test system: VSV-G pseudotyped HIV NL4-3; assay: microbe, parasite or virus in culture; format: cell-based; details: for EC50: Human immunodeficiency virus 1, NL43, CCRF-CEM, 72 h, read-out: HIV EC50
in vitro = details: human
HBV polymerase = target: T1, HBV polymerase (Hepatitis B virus genotype D subtype ayw, UniProt P03156); assay: HBV polymerase RdDp activity assay; format: biochemical; details: read-out: HBV pol IC50
T1 construct: Recombinant HBV polymerase (Hepatitis B virus genotype D subtype ayw, full length); made in house; host or cells: Sf9 insect cells (baculovirus)
T1 sequence (P03156 whole entry): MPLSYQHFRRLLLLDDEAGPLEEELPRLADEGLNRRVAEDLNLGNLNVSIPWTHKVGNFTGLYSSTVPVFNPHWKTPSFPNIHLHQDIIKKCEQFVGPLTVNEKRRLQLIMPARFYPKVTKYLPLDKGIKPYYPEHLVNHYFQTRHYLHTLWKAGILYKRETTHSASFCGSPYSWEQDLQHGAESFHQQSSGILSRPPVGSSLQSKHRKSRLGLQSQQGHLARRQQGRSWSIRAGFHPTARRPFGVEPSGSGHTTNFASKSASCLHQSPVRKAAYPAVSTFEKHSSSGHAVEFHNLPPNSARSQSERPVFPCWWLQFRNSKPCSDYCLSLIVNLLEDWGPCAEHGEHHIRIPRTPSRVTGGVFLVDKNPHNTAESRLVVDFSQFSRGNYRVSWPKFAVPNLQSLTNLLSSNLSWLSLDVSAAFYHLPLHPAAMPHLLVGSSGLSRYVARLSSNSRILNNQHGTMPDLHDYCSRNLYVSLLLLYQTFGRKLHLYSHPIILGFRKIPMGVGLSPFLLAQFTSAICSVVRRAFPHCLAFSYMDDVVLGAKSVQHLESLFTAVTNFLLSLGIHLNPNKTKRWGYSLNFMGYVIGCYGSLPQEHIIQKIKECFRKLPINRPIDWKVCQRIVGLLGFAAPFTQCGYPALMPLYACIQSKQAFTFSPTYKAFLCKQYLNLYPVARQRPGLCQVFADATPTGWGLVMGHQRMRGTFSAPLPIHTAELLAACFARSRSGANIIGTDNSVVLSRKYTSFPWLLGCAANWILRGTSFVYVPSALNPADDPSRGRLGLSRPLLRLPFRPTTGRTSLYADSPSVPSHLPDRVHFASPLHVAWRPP
Excerpt: (§2) HIV-1 reverse transcriptase (HIV-1 RT) was purchased from Abcam (cat#ab63979). Recombinant HBV polymerase (Hepatitis B virus genotype D subtype ayw, full length) was cloned using the baculovirus system, expressed in sf9 cells, and purified with similar strategy and methods described by Lanford et al.. A DNA primer (5′-[…]-3′) was synthesized by IDTDNA and a 358-nt RNA template was synthesized in-house using Megascript T7 transcription kit (ThermoFisher, cat#AM1334). dNTPs were purchased from Thermo Fisher and ^3H-dTTP from Perkin Elmer. Filter plates were purchased from Millipore (cat#MABN0V050) and microscint-20 was purchased from Perkin Elmer (cat#6013621).
The RdDp activity of HBV polymerase was measured similarly as described for the HIV-1 RT. To test compound inhibition effect, the reactions were performed at 30 °C for 120 min in a reaction mixture containing reaction buffer (50 mM Tris-Cl, pH 7.5, 100 mM KCl, 12.5 mM MgCl2, 4 mM DTT), 15 µg/mL polymerase, 0.5 µM DNA primer, 0.05 µM RNA template, 10% DMSO, 0.046 µM dATP, 0.057 µM dGTP, 0.017 µM dCTP, 0.32 µM ^3H-dTTP, and compounds at various concentrations.
All data were analyzed with GraphPad Prism. […]

[5] = target: T2, HIV-1 reverse transcriptase (HIV-1 RT) (Human immunodeficiency virus type 1 group M subtype B, UniProt P03366); assay: HIV-1 reverse transcriptase RdDp activity assay; format: biochemical
T2 construct: HIV-1 reverse transcriptase (HIV-1 RT) was purchased from Abcam (cat#ab63979); purchased Abcam ab63979
Excerpt: as §2
The RNA-dependent DNA polymerization (RdDp) activity of HIV-1 RT was measured by the incorporation of radioactively labeled nucleotides by HIV-1 RT into acid-insoluble DNA products from the DNA primer primed RNA template. To test compound inhibition, the reactions were performed at 30 °C for 40 min in a reaction mixture containing reaction buffer (50 mM Tris-Cl, pH 7.5, 100 mM KCl, 12.5 mM MgCl2, 4 mM DTT), 1 nM HIV-1 RT, 0.1 µM DNA primer, 0.02 µM RNA template, 10% DMSO, 0.1 µM dATP, 1 µM dGTP, 0.1 µM dCTP, 0.32 µM ^3H-dTTP, and compounds at various concentrations. The 50 µL reactions were performed in 96-well plates. The reactions were quenched with a 60 µL cold mixture of 20% (w/v) TCA and 0.5 mM ATP and incubated at 4 °C for 1 h. The reactions were loaded onto 96-well filter plates. The filters on plates were washed three times with 10% TCA and once with 70% ethanol on a Millipore plate wash station with vacuum applied. The filters on the plate were air-dried and 40 μL Microscint-20 was added to each well. The acid-precipitated tritiated DNA products retained on the filters were detected by a Trilux MicroBeta scintillation reader (Perkin Elmer).
All data were analyzed with GraphPad Prism. The compound concentration at which the enzyme-catalyzed rate was reduced by 50% (IC50) was calculated by fitting the data to the equation Y = % Min + (% Max − % Min) / (1 + 10^((logIC50-X)*h)), where Y corresponds to the percent inhibition to the enzyme activity, % Min is the residual inhibition activity without compound, % Max is the maximum inhibition of enzyme activity at saturating compound concentration, and X corresponds to the log of compound concentrations, and h is the hillslope.

HepG2 cells = assay: Cell cytotoxicity against HepG2 cells (CellTiter-Glo, 96 h); format: cell-based, human; details: at highest tested concentrations; HepG2 and CEM cells (Table 1)
Procedure: as §1

[6] = HepG2 cells, 96 h, read-out: HBV CC50

SMILES | EC50 (HBV [2]) | EC50 [4] | CC50 (in vitro) | anti-HBV activity (HBV [2]) | cytotoxicity (HepG2 cells) | also measured
Nc1ccn([C@H]2C[C@@](F)(CO)CO2)c(=O)n1 (relative stereo) [Compound 2c] |  |  |  |  |  | EC50 (HBV [1]): 11 nM
Nc1nc(=O)n([C@H]2C[C@@](F)(CO)CO2)cc1F (relative stereo) [Compound 2d] |  |  |  |  |  | EC50 (HBV [1]): 800 nM
O=c1[nH]c(=O)n([C@H]2C[C@](F)(CO)CO2)cc1I (relative stereo) [Compound 3b] |  |  |  |  |  | EC50 (HBV [1]): 800 nM
C=C1[C@H](CO)[C@@H](O)C[C@@H]1n1cnc2c(=O)[nH]c(N)nc21 [Compound 1, entecavir, reference compound] | 3 ± 2.4 nM | 1240 nM |  |  |  | CC50 at 96 h [3]: > 100000 nM
C=C1[C@H](COP(=O)(N[C@@H](C)C(=O)OC(C)C)Oc2ccccc2)[C@@H](O)C[C@@H]1n1cnc2c(=O)[nH]c(N)nc21 (some centres unmarked) [Compound 1-PD, reference compound] | 31 ± 20 nM | > 20000 nM | > 20000 nM |  |  | CC50 at 96 h [3, 6]: > 10000 nM
C=C1[C@H](COP(=O)(O)OP(=O)(O)OP(=O)(O)O)[C@@H](O)C[C@@H]1n1cnc2c(=O)[nH]c(N)nc21 [Compound 1-TP, reference compound] |  |  |  |  |  | IC50 (HBV polymerase): 14 ± 3 nM; IC50 [5]: 320 nM
Nc1ncnc2c1ncn2[C@@H]1OC[C@](F)(CO)[C@H]1O [Compound 4, (2R,3S,4R)-2-(6-Amino-9H-purin-9-yl)-4-fluoro-4-(hydroxymethyl)tetrahydrofuran-3-ol] | > 100000 nM | > 33000 nM | > 33000 nM | Neither 4 nor its prodrug 24 showed any anti-HBV activity | None of the tested apionucleosides 4 and 5 or apionucleoside prodrugs 24 and 39 showed any cytotoxicity | CC50 at 96 h [3]: > 100000 nM
Nc1ncnc2c1ncn2[C@@H]1OC[C@](F)(CO)[C@H]1CO [Compound 5, ((2R,3S,4R)-2-(6-Amino-9H-purin-9-yl)-4-fluorotetrahydrofuran-3,4-diyl)dimethanol] | > 10000 nM | > 33000 nM | > 33000 nM | did not show any anti-HBV activity | None of the tested apionucleosides 4 and 5 or apionucleoside prodrugs 24 and 39 showed any cytotoxicity | CC50 at 96 h [3]: > 10000 nM
Nc1ncnc2c1ncn2[C@@H]1OC[C@](F)(COP(=O)(O)OP(=O)(O)OP(=O)(O)O)[C@H]1O [Compound 23, ((3S,4S,5R)-5-(6-Amino-9H-purin-9-yl)-3-fluoro-4-hydroxytetrahydrofuran-3-yl)methyl triphosphate] |  |  |  |  |  | IC50 [5]: 4200 nM
CC(C)OC(=O)[C@H](C)NP(=O)(OC[C@@]1(F)CO[C@@H](n2cnc3c(N)ncnc32)[C@@H]1O)Oc1ccccc1 (stereo partly drawn) [Compound 24, Isopropyl ((((3S,4S,5R)-5-(6-amino-9H-purin-9-yl)-3-fluoro-4-hydroxytetrahydrofuran-3-yl)methoxy)(phenoxy)phosphoryl)-L-alaninate] | > 10000 nM | > 33000 nM | > 33000 nM | Neither 4 nor its prodrug 24 showed any anti-HBV activity | None of the tested apionucleosides 4 and 5 or apionucleoside prodrugs 24 and 39 showed any cytotoxicity | CC50 at 96 h [3, 6]: > 10000 nM
CC(C)OC(=O)[C@H](C)NP(=O)(OC[C@@]1(F)CO[C@@H](n2cnc3c(N)ncnc32)[C@@H]1CO)Oc1ccccc1 (stereo partly drawn) [Compound 39, Isopropyl ((((3S,4S,5R)-5-(6-amino-9H-purin-9-yl)-3-fluoro-4-(hydroxymethyl)tetrahydro-furan-3-yl)methoxy)(phenoxy)phosphoryl)-L-alaninate] | 7.8 ± 3.5 nM | 300 nM | > 33000 nM | strong inhibition of HBV | None of the tested apionucleosides 4 and 5 or apionucleoside prodrugs 24 and 39 showed any cytotoxicity | CC50 at 96 h [3, 6]: > 10000 nM; anti-HIV activity [4]: showed anti-HIV activity
